Source: patent US6906094B2, “1,2,4-tribsubstituted benzenes as inhibitors of 15-lipoxygenase” (Warner-Lambert Company, priority 2000, dated 2005)

What was measured:
[1] = molecular target: T1, human 15-LO (Homo sapiens, UniProt P16050); assay: Human Lysate 15-LO Assay (HUM15LO); assay type: biochemical; settings: recombinant human 15-LO, 174 μM linoleic acid, 15 minutes at 4° C., 13-HODE quantitated
T1 construct: made in house; host or cells: Sf9 insect cells (baculovirus, Bac-to-Bac)
T1 sequence (P16050 1-662): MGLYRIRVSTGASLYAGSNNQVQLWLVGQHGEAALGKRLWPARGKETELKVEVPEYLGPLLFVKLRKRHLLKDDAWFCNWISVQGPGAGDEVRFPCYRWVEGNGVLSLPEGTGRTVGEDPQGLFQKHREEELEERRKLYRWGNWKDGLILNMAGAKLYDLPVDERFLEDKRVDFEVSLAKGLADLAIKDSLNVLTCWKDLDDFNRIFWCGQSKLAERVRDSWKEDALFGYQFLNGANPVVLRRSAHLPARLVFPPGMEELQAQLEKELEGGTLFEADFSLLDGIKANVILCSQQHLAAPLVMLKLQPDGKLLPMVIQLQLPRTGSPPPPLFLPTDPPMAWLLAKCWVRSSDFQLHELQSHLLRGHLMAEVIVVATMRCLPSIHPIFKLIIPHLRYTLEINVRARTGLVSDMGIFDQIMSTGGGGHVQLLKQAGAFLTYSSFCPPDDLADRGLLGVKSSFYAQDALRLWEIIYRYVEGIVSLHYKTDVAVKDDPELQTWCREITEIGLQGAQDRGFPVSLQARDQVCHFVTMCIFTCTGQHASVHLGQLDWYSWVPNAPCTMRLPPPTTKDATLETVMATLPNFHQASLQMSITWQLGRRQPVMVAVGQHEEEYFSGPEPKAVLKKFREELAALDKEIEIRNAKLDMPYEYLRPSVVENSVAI
Outline: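 Baculovirus-expressed recombinant enzyme incubated with compound and 174 μM linoleic acid in PBS with 0.2% sodium cholate, 15 min at 4° C. 13-HODE product quantitated against an authentic standard curve. Percent inhibition derived relative to a compound-free control reaction.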

[2] = molecular target: T2, rabbit reticulocyte 15-LO (Oryctolagus cuniculus, UniProt P12530); assay: Rabbit Reticulocyte 15-LO Assay (H15LO); assay type: biochemical; settings: 2 U rabbit reticulocyte 15-LO, 174 μM linoleic acid, 15 minutes at 4° C., 13-HODE quantitated
T2 construct: 15-LO is obtained from phenylhydrazine-treated rabbits and purified according to the method of Rapoport; from tissue; host or cells: reticulocytes of phenylhydrazine-treated rabbits
T2 sequence (P12530 1-663): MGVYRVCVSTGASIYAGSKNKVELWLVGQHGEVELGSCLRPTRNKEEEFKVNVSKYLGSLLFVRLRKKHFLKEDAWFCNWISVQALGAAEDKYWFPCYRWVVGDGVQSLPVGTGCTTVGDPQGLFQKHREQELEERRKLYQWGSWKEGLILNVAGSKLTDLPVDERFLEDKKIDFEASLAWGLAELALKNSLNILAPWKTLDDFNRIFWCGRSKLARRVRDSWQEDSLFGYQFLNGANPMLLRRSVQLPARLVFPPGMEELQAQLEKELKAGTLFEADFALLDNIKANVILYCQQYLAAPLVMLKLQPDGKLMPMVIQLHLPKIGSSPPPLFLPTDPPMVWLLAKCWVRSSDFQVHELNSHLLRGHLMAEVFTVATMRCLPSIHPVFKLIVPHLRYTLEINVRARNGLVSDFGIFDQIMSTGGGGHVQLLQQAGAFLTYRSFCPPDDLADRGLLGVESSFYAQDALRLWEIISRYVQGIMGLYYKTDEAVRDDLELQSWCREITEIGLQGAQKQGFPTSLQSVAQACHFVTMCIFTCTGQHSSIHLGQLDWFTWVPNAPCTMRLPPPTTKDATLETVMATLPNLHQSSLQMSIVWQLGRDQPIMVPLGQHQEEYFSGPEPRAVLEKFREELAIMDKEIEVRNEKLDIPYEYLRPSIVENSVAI
Outline: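 Rabbit reticulocyte 15-LO purified from phenylhydrazine-treated rabbits; 2 U enzyme incubated with 174 μM linoleic acid and test compound for 15 min at 4° C in PBS with 0.2% sodium cholate. Reaction stopped with mobile phase and triethyl phosphite; 13-HODE product quantitated by peak area against an authentic 13-HODE standard curve.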

SMILES | melting point [°C] | IC50 [1] [nM] | IC50 [2] [nM]
CCCCCCCOC(=O)NS(=O)(=O)Nc1cc(-c2cc3cc(F)c(F)cc3[nH]2)ccc1OC [Example 30, Carbamic Acid, [[[5-(5,6-difluoro-IH-indo-2-yl)2-methoxyphenyl]amino]-sulfonyl]-heptyl ester] | 178 to 180 | 14 | 5
COc1ccc(-c2cc3cc(F)c(F)cc3[nH]2)cc1NS(=O)(=O)NC(=O)OC/C=C/c1ccccc1 [Example 32, Carbamic Acid, [[[5-(5,6-difluoro-IH-indol-2-yl)-2-methoxyphenyl]amino]sulfonyl]-(2E)-3-phenyl-2-propenyl ester] | 149 to 152 | 16 | 6
COc1ccc(C(=O)Nc2ccc(F)c(F)c2)cc1NS(=O)(=O)NC(=O)OC/C=C/c1ccccc1 [Example 33, Carbamic Acid, [[[5-[[(3,4-difluorophenyl)amino]carbonyl]-2-methoxyphenyl]amino]sulfonyl]-, (2E)-3-phenyl-2-propenyl ester] | 159 to 163 | 13 | 7
COc1ccc(-c2cc3cc(F)c(F)cc3[nH]2)cc1NS(=O)(=O)NC(=O)OCc1ccccc1 [Example 36, Carbamic Acid, [[[5-(5,6-difluoro-IH-indol-2-yl)-methoxyphenyl]amino]-sulfonyl]-, Phenylmethyl ester] | 177 to 180 | 13 | 12
COc1ccc(C(=O)Nc2ccc(F)c(F)c2)cc1NS(=O)(=O)NC(=O)OCc1ccccc1 [Example 42, Carbamic Acid, [[[5-[[(3,4-difluorophenyl)amino]carbonyl]-2-methoxyphenyl]amino]sulfonyl]-, Phenylmethyl Ester] | 173 to 176 | 76 | 19
CCOCCOC(=O)NS(=O)(=O)Nc1cc(-c2cc3cc(F)c(F)cc3[nH]2)ccc1OC [Example 47, Carbamic Acid, [[[5-(5,6-difluoro-IH-indol-2-yl)-2-methoxyphenyl]-amino]sulfonyl]-, 2-ethoxyethyl ester] | 178 to 181 | 54 | 44
COc1ccc(-c2cc3cc(F)c(F)cc3[nH]2)cc1NS(=O)(=O)NC(=O)OCCCOCc1ccccc1 [Example 49, Carbamic Acid, [[[5-(5,6-difluoro-IH-indol-2-yl)-2-methoxyphenyl]-amino]sulfonyl]-3-(phenylmethoxy)propyl ester] | 166 to 168 | 15 | 5

Continued, values first:

melting point [°C] | IC50 [1] [nM] | IC50 [2] [nM] | SMILES
178 to 179 | 65 | 18 | COc1ccc(C(=O)Nc2ccc(F)c(F)c2)cc1NS(=O)(=O)NC(=O)OCCCOCc1ccccc1 [Example 50, Carbamic Acid, [[[5-[[(3,4-difluorophenyl)amino]carbonyl]-2-methoxyphenyl]amino]sulfonyl]-, 3-(phenylmethoxy)propyl ester]
186 to 188 | 12 | 2 | CCCCCCOC(=O)NS(=O)(=O)Nc1cc(-c2cc3cc(F)c(F)cc3[nH]2)ccc1OC [Example 51, Carbamic Acid, [[[5-(5,6-difluoro-IH-indo-2yl)-methoxyphenyl]amino]-sulfonyl]-hexyl ester]
175 to 178 | 39 | 5 | CCCCCCOC(=O)NS(=O)(=O)Nc1cc(C(=O)Nc2ccc(F)c(F)c2)ccc1OC [Example 52, Carbamic Acid, [[[5-[[(3,4-difluorophenyl)amino]carbonyl]-2methoxyphenyl]amino]sulfonyl]-, Hexyl ester]
177 to 180 | 12 | 10 | COc1ccc(-c2cc3cc(F)c(F)cc3[nH]2)cc1NS(N)(=O)=O [Example 54, Sulfamide, [5-(5,6-difluoro-IH-indol-2-yl)-2-methoxyphenyl]]
167 to 170 | 29 | 19 | COc1ccc(C(=O)Nc2ccc(F)c(F)c2)cc1NS(N)(=O)=O [Example 55, Benzamide, 3-[(aminosulfonyl)amino]-N-(3,4-difluorophenyl)-4-methoxy]
193 to 196 | 39 | 13 | COc1ccc(C(=O)Nc2ccc(F)c(F)c2)cc1NS(=O)(=O)NC(=O)Nc1cccc(Cl)c1 [Example 61, Benzamide, 3-[[[[[(3-chlorophenyl)amino]carbonyl]amino]sulfonyl]amino]-N-(3,4-difluorophenyl)-4-methoxy]
198 to 200 | 24 | – | COc1ccc(C(=O)Nc2ccc(F)c(F)c2)cc1NS(=O)(=O)NC(=O)Nc1cccc(C(F)(F)F)c1 [Example 64, Benzamide, N-(3,4-difluorophenyl)methoxy-3-[[[[[[3-(trifluoromethyl)phenyl]amino]carbonyl]amino]sulfonyl]amino]]
195 to 198 | 359 | – | COc1ccc(C(=O)Nc2ccc(F)c(F)c2)cc1NS(=O)(=O)NC(=O)Nc1ccc(Cl)cc1 [Example 68, Benzamide, 3-[[[[[(4-chlorophenyl)amino]carbonyl]amino]sulfonyl]amino]-N-(3,4-difluorophenyl)-4-methoxy]
